Source: DBAASP
Values after ≈ are worked out from the molar mass of the structure shown. Values joined by “and” are separate entries in the source; they are usually repeats but may differ in a detail not shown here. Equal entries are not always repeated. Each block holds one molecule with its values, some of them ahead of it.

How the values were obtained:
Assay in all cases: ≥ marks a high value that may be exact or a test limit, other limits are often not marked, values filed in µg/mL are converted to µM
Enterococcus faecalis = test system: Enterococcus faecalis
Escherichia coli W3110 = test system: Escherichia coli W3110
[1] = test system: Pseudomonas aeruginosa PAK
Staphylococcus aureus = test system: Staphylococcus aureus
[2] = test system: Streptococcus mutans UA159
[3] = test system: Streptococcus sanguinis NY101
[4] = test system: Streptococcus sobrinus ATCC 33478
[5] = test system: Pseudomonas aeruginosa MR3007
[6] = test system: Staphylococcus aureus 930918-3
Escherichia coli D31 = test system: Escherichia coli D31
[7] = test system: Klebsiella pneumoniae K6 ATCC 700603
[8] = test system: Salmonella enterica subsp. enterica serovar Typhimurium ATCC 700408
Escherichia coli O157:H7 = test system: Escherichia coli O157:H7
[9] = test system: Staphylococcus aureus 1056
Bacillus megaterium Bm11 = test system: Bacillus megaterium Bm11
Candida tropicalis = test system: Candida tropicalis
Mammaliicoccus lentus = test system: Mammaliicoccus lentus
Micrococcus luteus = test system: Micrococcus luteus
[10] = test system: Phytophthora nicotianae PG344
[11] = test system: Pseudomonas syringae pv. tabaci
[12] = test system: Yersinia pseudotuberculosis YPIII
[13] = test system: Bacillus licheniformis X39
[14] = test system: Enterococcus faecalis 981
[15] = test system: Escherichia coli ATCC 25922
[16] = test system: Klebsiella pneumoniae 08040724
[17] = test system: Psychrobacter faecalis X29
[18] = test system: Rhodococcus rhodochrous X15
Serratia rubidaea X01 = test system: Serratia rubidaea X01
[19] = test system: Staphylococcus aureus ATCC 25923
[20] = test system: Staphylococcus carnosus KHS

MIC [5]: 0.27 µM and 0.34 µM | MIC [6]: 0.69 µM and 0.84 µM
Compound: CC[C@H](C)[C@H](NC(=O)[C@H](CCCCN)NC(=O)[C@H](CCCCN)NC(=O)[C@H](CC(C)C)NC(=O)[C@H](CCCCN)NC(=O)[C@H](CCC(=O)O)NC(=O)[C@H](CCCCN)NC(=O)[C@@H](NC(=O)[C@H](CCCCN)NC(=O)[C@H](CC(N)=O)NC(=O)[C@H](CCCN=C(N)N)NC(=O)[C@H](Cc1ccccc1)NC(=O)[C@H](CCCCN)NC(=O)[C@H](CCCN=C(N)N)NC(=O)[C@H](CC(C)C)NC(=O)[C@H](CCCN=C(N)N)NC(=O)[C@H](CCCCN)NC(=O)[C@H](CCCN=C(N)N)NC(=O)[C@H](CC(C)C)NC(=O)CN)[C@@H](C)CC)C(=O)NCC(=O)O [GLRKRLRKFRNKIKEKLKKIG]

MIC (Bacillus megaterium Bm11): 3 µM (≈ 5.71 µg/mL) | MIC (Candida tropicalis): 7.4 µM (≈ 14.1 µg/mL) | MIC (Mammaliicoccus lentus): 7 µM (≈ 13.3 µg/mL) | MIC (Micrococcus luteus): 5 µM (≈ 9.52 µg/mL) | MIC [10]: ≥ 32 µM | MIC [11]: ≥ 80 µM | MIC [12]: 9 µM (≈ 17.1 µg/mL)
Compound: C[C@H](NC(=O)[C@@H](N)CO)C(=O)N1CCC[C@H]1C(=O)N[C@@H](CCCN=C(N)N)C(=O)NCC(=O)N[C@H]1CSSC[C@@H](C(=O)N[C@@H](CCCCN)C(N)=O)NC(=O)[C@@H]2CCCN2C(=O)[C@H](CCCCN)NC(=O)[C@@H]2CCCN2C(=O)[C@@H]2CCCN2C(=O)[C@H](Cc2ccc(O)cc2)NC(=O)[C@H](CO)NC(=O)[C@H](CCCCN)NC(=O)[C@H]([C@@H](C)O)NC(=O)[C@H](Cc2c[nH]c3ccccc23)NC1=O [SAPRGCWTKSYPPKPCK]

MIC [13]: 9 µM (≈ 35.3 µg/mL) | MIC [14]: 19 µM (≈ 74.6 µg/mL) | MIC [15]: 75 µM (≈ 295 µg/mL) | MIC [16]: ≥ 150 µM | MIC [17]: 4.5 µM (≈ 17.7 µg/mL) | MIC [18]: 1.2 µM (≈ 4.71 µg/mL) | MIC (Serratia rubidaea X01): 1.2 µM (≈ 4.71 µg/mL) | MIC [19]: 9 µM (≈ 35.3 µg/mL) | MIC [20]: 1.2 µM (≈ 4.71 µg/mL)
Compound: CC[C@H](C)[C@H](NC(=O)[C@H](CO)NC(=O)[C@H](Cc1ccccc1)NC(=O)[C@H](CC(C)C)NC(=O)[C@@H](N)CO)C(=O)N[C@@H](Cc1ccccc1)C(=O)N[C@@H](CCCCN)C(=O)N[C@H](C(=O)N[C@@H](C)C(=O)N[C@@H](C)C(=O)N[C@@H](CCCCN)C(=O)N[C@@H](Cc1ccccc1)C(=O)N[C@H](C(=O)NCC(=O)N[C@@H](CCCCN)C(=O)N[C@@H](CC(N)=O)C(=O)N[C@@H](CC(C)C)C(=O)N[C@@H](CC(C)C)C(=O)N[C@@H](CCCCN)C(=O)N[C@@H](CCC(N)=O)C(=O)N[C@@H](C)C(=O)NCC(=O)N[C@@H](CCCCN)C(=O)N[C@@H](C)C(=O)NCC(=O)N[C@@H](CC(C)C)C(=O)N[C@@H](CCC(=O)O)C(=O)N[C@H](C(=O)N[C@@H](CC(C)C)C(=O)N[C@@H](C)C(=O)N[C@H]1CSSC[C@@H](C(=O)O)NC(=O)[C@H](CCC(=O)O)NC(=O)[C@H](CC(N)=O)NC(=O)[C@H](CCCCN)NC(=O)[C@H](C)NC(=O)[C@H](CCCCN)NC1=O)[C@@H](C)O)C(C)C)[C@@H](C)O [SLFSIFKTAAKFVGKNLLKQAGKAGLETLACKAKNEC]

Further lines, the molecule ahead of its results:

Compound: CC[C@H](C)[C@H](NC(=O)[C@H](Cc1ccccc1)NC(=O)CNC(=O)CNC(=O)CNC(=O)[C@H](Cc1ccccc1)NC(=O)[C@H](Cc1cnc[nH]1)NC(=O)[C@H](CC(C)C)NC(=O)[C@H](Cc1cnc[nH]1)NC(=O)[C@H](Cc1ccccc1)NC(=O)[C@H](Cc1cnc[nH]1)NC(=O)[C@@H](N)Cc1ccccc1)C(=O)N[C@@H](CCCCN)C(=O)N[C@@H](Cc1cnc[nH]1)C(=O)N[C@@H](Cc1ccccc1)C(=O)N[C@H](C(=O)N[C@@H](Cc1cnc[nH]1)C(=O)N[C@@H](CCCN=C(N)N)C(=O)N[C@@H](Cc1ccccc1)C(N)=O)[C@@H](C)CC [FHFHLHFGGGFIKHFIHRF]
MIC (Enterococcus faecalis): 26.2 µM (≈ 62.5 µg/mL) | MIC (Escherichia coli W3110): 26.2 µM (≈ 62.5 µg/mL) | MIC [1]: 26.2 µM (≈ 62.5 µg/mL) | MIC (Staphylococcus aureus): 52.5 µM (≈ 125 µg/mL) | MIC [2]: 13.4 µM (≈ 32 µg/mL) | MIC [3]: 26.2 µM (≈ 62.5 µg/mL) | MIC [4]: 26.2 µM (≈ 62.5 µg/mL)

Compound: CC[C@H](C)[C@H](NC(=O)[C@H](Cc1ccc(O)cc1)NC(=O)[C@@H](NC(=O)[C@@H]1CCCN1C(=O)[C@H](CCCN=C(N)N)NC(=O)[C@H](CC(N)=O)NC(=O)[C@H](CC(N)=O)NC(=O)CN)C(C)C)C(=O)N1CCC[C@H]1C(=O)N[C@@H](CCC(N)=O)C(=O)N1CCC[C@H]1C(=O)N[C@@H](CCCN=C(N)N)C(=O)N1CCC[C@H]1C(=O)N1CCC[C@H]1C(=O)N[C@@H](Cc1cnc[nH]1)C(=O)N1CCC[C@H]1C(=O)N[C@@H](CC(C)C)C(N)=O [GNNRPVYIPQPRPPHPL]
MIC (Escherichia coli D31): ≥ 65.6 µM | MIC [7]: ≥ 32.8 µM | MIC [8]: ≥ 32.8 µM

Compound: CC[C@H](C)[C@@H]1NC(=O)[C@H](CCCN=C(N)N)NC(=O)[C@H](CC(C)C)NC(=O)CNC(=O)[C@@H]2CSSC[C@@H]3NC(=O)[C@H](CC(C)C)NC(=O)CNC(=O)[C@H](CC(C)C)NC(=O)[C@H](Cc4ccccc4)NC(=O)[C@H](CCCN=C(N)N)NC(=O)[C@H](CO)NC(=O)[C@@H]4CCCN4C(=O)[C@H](Cc4ccccc4)NC(=O)[C@H](CC(N)=O)NC(=O)[C@H](CSSC[C@@H](C(=O)N[C@@H](CO)C(=O)N[C@@H](CCCN=C(N)N)C(=O)N[C@H](C(=O)N[C@@H](Cc4c[nH]c5ccccc45)C(=O)N[C@H](C(=O)O)C(C)C)C(C)C)NC(=O)[C@H](CSSC[C@H](NC(=O)[C@H](CCC(N)=O)NC(=O)[C@H](C)NC(=O)[C@H](CCC(=O)O)NC(=O)[C@H](CC(N)=O)NC(=O)[C@@H](NC(=O)[C@@H]4CCCN4C(=O)[C@@H](N)CC(C)C)C(C)C)C(=O)N[C@@H](CCCN=C(N)N)C(=O)N[C@@H](CCC(N)=O)C(=O)N[C@@H](C(C)C)C(=O)NCC(=O)NCC(=O)N[C@@H](Cc4ccc(O)cc4)C(=O)N2)NC(=O)[C@@H]2CCCN2C(=O)[C@H](Cc2cnc[nH]2)NC(=O)[C@H](CC(N)=O)NC(=O)[C@H](CCCN=C(N)N)NC(=O)[C@H]([C@@H](C)O)NC3=O)NC1=O [LPVNEAQCRQVGGYCGLRICNFPSRFLGLCTRNHPCCSRVWV]
MIC (Escherichia coli O157:H7): 2.53 µM (≈ 12 µg/mL) | MIC [9]: 2.41 µM (≈ 11.5 µg/mL)
